# Results reported in article PMC10161222, “Small Molecule Decoys of Aggregation for Elimination of Aβ-Peptide Toxicity” (ACS Chemical Neuroscience, 2023).
# pIC50: −log10 of the molar value.
# Target: T1, Aβ40 (Homo sapiens, UniProt P05067)
# T1 construct: gene APP; 40-residue peptide cut from APP; IC50 rows: purchased mixture of HiLyte Fluor 488- and HiLyte Fluor 647-labelled human peptide (AnaSpec); ThT and TEM rows: unlabelled human recombinant peptide; self-associating, small oligomers of at most 8 monomers
# T1 sequence (P05067 672-711 limits assumed): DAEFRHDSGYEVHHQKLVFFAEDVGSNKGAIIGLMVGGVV
# Experiment: FRET-FCS early aggregation, molecular brightness (counts per particle)
# Format: biochemical
# Details: inhibition of oligomer formation; HiLyte 488/647-labelled Aβ40 (about 100 nM + 200 nM), 20 mM HEPES pH 7.4
smiles,measurement,value
"COc1cc(-c2ccc(N=Nc3cc(S(=O)(=O)O)c4ccccc4c3O)c(OC)c2)ccc1N=Nc1cc(S(=O)(=O)O)c2ccccc2c1O [#2, NSC 9615]",pIC50,6.89
